Experimental data published in patent US10233195B2, “Anti-fibrotic pyridinones” (InterMune, Inc., priority 2014, dated 2019).
pEC50: −log10 of the molar value.

Test system: TGF-b induced Endothelin-1 production
Assay: ET-1 assay: inhibitory effect on TGF-b induced endothelin-1 production
Type: cell-based
Conditions: Homo sapiens, Fibroblast; fibroblasts, stimulant (TGFb, serum, LPA etc), ET-1 in media by ELISA, 4-parameter fit
Summary of the method: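 Fibroblasts (primary human lung/dermal, HFL-1, 3T3) serum-starved 0-48 h, preincubated ~30 min with compound, then stimulated (TGFb, serum or LPA) for 16-48 h. Secreted ET-1 measured by ELISA; EC50 from 4-parameter logistic fit, with CC50 from ATPlite in the same wells.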

CCOc1ccc(-n2cc(-c3cccc(Cl)c3)ccc2=O)c(C)c1 [Compound 321]
pEC50: > 4.30

O=c1ccc(-c2cccc(Cl)c2)cn1-c1ccccc1Cl [Compound 322]
pEC50: > 4.30

O=c1ccc(-c2cccc(Cl)c2)cn1-c1ccncc1 [Compound 323]
pEC50: < 3.70

O=c1ccc(-c2cccc(Cl)c2)cn1-c1ccccc1F [Compound 324]
pEC50: 3.70 to 4.30

NS(=O)(=O)c1ccc(-c2ccc(=O)n(-c3ccc(Cl)cc3)c2)cc1 [Compound 327]
pEC50: < 3.70

COc1ccc(-n2cc(-c3ccc(S(N)(=O)=O)cc3)ccc2=O)cc1 [Compound 328]
pEC50: < 3.70

NS(=O)(=O)c1ccc(-c2ccc(=O)n(-c3cccc(C(F)(F)F)c3)c2)cc1 [Compound 329]
pEC50: < 3.70

CC(C)Oc1ccc(-n2cc(-c3ccc(S(N)(=O)=O)cc3)ccc2=O)cc1 [Compound 330]
pEC50: < 3.70

COc1cccc(-n2cc(-c3ccc(S(N)(=O)=O)cc3)ccc2=O)c1 [Compound 331]
pEC50: < 3.70

COc1ccc(-n2cc(C)ccc2=S)cc1 [Compound 332]
pEC50: < 3.70

Cc1ccc(=S)n(-c2ccc(OC(C)C)cc2)c1 [Compound 334]
pEC50: < 3.70

Cc1ccc(=S)n(-c2ccc(F)cc2)c1 [Compound 336]
pEC50: < 3.70

Cc1ccc(=S)n(-c2cccc(F)c2)c1 [Compound 338]
pEC50: < 3.70

O=c1ccc(-c2cncnc2)cn1-c1ccc(F)cc1 [Compound 344]
pEC50: < 3.70

O=c1ccc(-c2cncnc2)cn1-c1cccc(F)c1 [Compound 345]
pEC50: < 3.70

O=c1ccc(-c2cncnc2)cn1-c1ccccc1F [Compound 346]
pEC50: < 3.70

O=c1ncc(-c2ccnnc2)cn1-c1ccc(OC(F)(F)F)cc1 [Compound 347]
pEC50: 3.70 to 4.30

Cc1cc(C)c(=O)n(-c2ccccc2)c1 [Compound 349]
pEC50: < 3.70

Cc1cc(-c2cnn(C)c2)cn(-c2ccc(OC(F)(F)F)cc2)c1=O [Compound 352]
pEC50: 3.70 to 4.30

O=c1cc2ccccc2cn1-c1ccccc1 [Compound 354]
pEC50: 3.70 to 4.30

Cn1cc(-c2cnc(=O)n(-c3ccccc3)c2)cn1 [Compound 355]
pEC50: < 3.70

O=c1ncc(-c2ccc(F)cc2)cn1-c1ccccc1 [Compound 356]
pEC50: 3.70 to 4.30

O=c1ncc(-c2ccc(F)cc2)cn1-c1ccc(OC(F)(F)F)cc1 [Compound 357]
pEC50: < 3.70

Cc1ccc(=O)n(-c2ccccc2)n1 [Compound 359]
pEC50: < 3.70

Cn1cc(-c2ccc(=O)n(-c3ccccc3)n2)cn1 [Compound 361]
pEC50: < 3.70

O=c1ccc(-c2ccc(F)cc2)nn1-c1ccc(OC(F)(F)F)cc1 [Compound 362]
pEC50: < 3.70

Cn1cc(-c2ccc(=O)n(-c3ccc(OC(F)(F)F)cc3)n2)cn1 [Compound 363]
pEC50: < 3.70

Cn1cc(-c2cnc(=O)n(-c3ccc(OC(F)(F)F)cc3)c2)cn1 [Compound 364]
pEC50: < 3.70

O=C1NC=CCN1c1ccccc1 [Compound 365]
pEC50: < 3.70

Cc1cc(=O)n(-c2ccccc2)cc1C [Compound 366]
pEC50: < 3.70

Cc1cc(=O)n(-c2ccc(OC(F)(F)F)cc2)cc1C [Compound 367]
pEC50: < 3.70

Cc1cc(=O)n(-c2ccc(OC(F)(F)F)cc2)cc1C(F)(F)F [Compound 368]
pEC50: < 3.70

CC(C)Oc1ccc(-n2cc(-c3cn[nH]c3)ccc2=O)cc1 [Compound 369]
pEC50: 3.70 to 4.30

COc1ccc(-n2cc(-c3cn[nH]c3)ccc2=O)cc1 [Compound 370]
pEC50: < 3.70

O=c1ccc(-c2cn[nH]c2)cn1-c1ccc(Cl)cc1 [Compound 371]
pEC50: < 3.70

O=c1ccc(-c2cn[nH]c2)cn1-c1cccc(F)c1 [Compound 372]
pEC50: < 3.70

O=c1ccc(-c2cn[nH]c2)cn1-c1cccc(C(F)(F)F)c1 [Compound 373]
pEC50: < 3.70

COc1cccc(-n2cc(-c3cn[nH]c3)ccc2=O)c1 [Compound 375]
pEC50: < 3.70

O=c1ccc(-c2cn[nH]c2)cn1-c1ccc(F)cc1 [Compound 377]
pEC50: 3.70 to 4.30

COc1cccc(-n2cc(-c3c(C)n[nH]c3C)ccc2=O)c1 [Compound 378]
pEC50: 3.70 to 4.30

Cc1n[nH]c(C)c1-c1ccc(=O)n(-c2ccc(F)cc2)c1 [Compound 379]
pEC50: < 3.70

Cc1n[nH]c(C)c1-c1ccc(=O)n(-c2ccc(Cl)cc2)c1 [Compound 380]
pEC50: < 3.70

Cc1n[nH]c(C)c1-c1ccc(=O)n(-c2cccc(F)c2)c1 [Compound 381]
pEC50: < 3.70

Cc1n[nH]c(C)c1-c1ccc(=O)n(-c2ccc(OC(C)C)cc2)c1 [Compound 382]
pEC50: 3.70 to 4.30

Cc1n[nH]c(C)c1-c1ccc(=O)n(-c2cccc(C(F)(F)F)c2)c1 [Compound 384]
pEC50: 3.70 to 4.30

CC(C)n1cc(-c2ccc(=O)n(-c3ccccc3)c2)cn1 [Compound 388]
pEC50: < 3.70

Cc1n[nH]c(C)c1-c1ccc(=O)n(-c2ccncc2)c1 [Compound 390]
pEC50: < 3.70

O=c1c2c(ccn2Cc2ccccc2)c(-c2ccc(F)cc2)cn1-c1ccc(OC(F)(F)F)cc1 [Compound 392]
pEC50: < 3.70

Cn1cc(-c2cn(-c3ccc(OC(F)(F)F)cc3)c(=O)c3c2OCC(=O)N3)cn1 [Compound 393]
pEC50: < 3.70

Cn1cc(-c2cn(-c3ccc(Cl)cc3)c(=O)c3nccnc23)cn1 [Compound 397]
pEC50: < 3.70

Cn1cc(-c2cn(-c3ccc(C#N)cc3)c(=O)c3nccnc23)cn1 [Compound 398]
pEC50: < 3.70

N#Cc1cc(=O)n(-c2ccc(OC(F)(F)F)cc2)cc1-c1ccc(F)cc1 [Compound 401]
pEC50: < 3.70

Cn1cc(-c2cn(-c3ccc(OC(F)(F)F)cc3)c(=O)cc2Oc2ccccc2F)cn1 [Compound 408]
pEC50: < 3.70

Cn1cc(-c2cn(-c3ccc(OC(F)(F)F)cc3)c(=O)cc2Oc2cccc(F)c2)cn1 [Compound 409]
pEC50: > 4.30

Cn1cc(-c2cn(-c3ccc(OC(F)(F)F)cc3)c(=O)cc2Oc2ccc(Cl)cc2)cn1 [Compound 412]
pEC50: < 3.70

CCOc1ccc(-n2cc(-c3ccc4ocnc4c3)c(C)cc2=O)c(C)c1 [Compound 420]
pEC50: 3.70 to 4.30

Cc1cc(=O)n(-c2ccc(Cl)cc2)cc1-c1ccc2scnc2c1 [Compound 421]
pEC50: 3.70 to 4.30

Cc1cc(=O)n(-c2ccc(Cl)cc2)cc1-c1ccc2ocnc2c1 [Compound 422]
pEC50: < 3.70

Cc1cc(=O)n(-c2ccc(OC(F)(F)F)cc2)cc1-c1cccc2c1OCC(=O)N2 [Compound 423]
pEC50: < 3.70

Cc1cc(=O)n(-c2ccc(OC(F)(F)F)cc2)cc1-c1cccc2c1NC(=O)CO2 [Compound 426]
pEC50: < 3.70

Cc1cc(=O)n(-c2ccc(OC(F)(F)F)cc2)cc1-c1cccc2c1N(C)C(=O)CO2 [Compound 427]
pEC50: < 3.70

Cc1cc(=O)n(-c2ccc(OC(F)(F)F)cc2)cc1-c1ccc2[nH]c(=O)oc2c1 [Compound 429]
pEC50: < 3.70

CCOc1ccc(-n2cc(-c3ccc(F)cc3)ccc2=O)c(C)c1 [Compound 438]
pEC50: < 3.70

Cc1ccccc1-n1cc(-c2cnn(C)c2)ccc1=O [Compound 439]
pEC50: < 3.70

Cc1ccc(F)c(-c2ccccc2)c1 [Compound 440]
pEC50: < 3.70

Cc1cc(=O)n(-c2ccc(OC(F)(F)F)cc2C)cc1-c1cnn(C)c1 [Compound 442]
pEC50: < 3.70

Cn1cc(-c2cn(-c3ccc(OC(F)(F)F)cc3)c(=O)cc2NCc2ccc(C#N)cc2)cn1 [Compound 526]
pEC50: < 3.70

Cn1cc(-c2cn(-c3ccc(OC(F)(F)F)cc3)c(=O)cc2NCc2ccc(C#N)cc2F)cn1 [Compound 527]
pEC50: > 4.30

CCOc1ccc(CNc2cc(=O)n(-c3ccc(OC(F)(F)F)cc3)cc2-c2cnn(C)c2)c(F)c1 [Compound 528]
pEC50: > 4.30

Cn1cc(-c2cn(-c3ccc(OC(F)(F)F)cc3)c(=O)cc2NCc2ncccn2)cn1 [Compound 529]
pEC50: < 3.70

CCOc1ccc(CNc2cc(=O)n(-c3ccc(OC(F)(F)F)cc3)cc2-c2cnn(C)c2)cc1 [Compound 530]
pEC50: > 4.30

Cn1cc(-c2cn(-c3ccc(F)cc3)c(=O)cc2Oc2ccccc2)cn1 [Compound 532]
pEC50: > 4.30

COCCOc1ccc(Oc2cc(=O)n(-c3ccc(OC(F)(F)F)cc3)cc2-c2cnn(C)c2)cc1 [Compound 533]
pEC50: 3.70 to 4.30

Cn1cc(-c2cn(-c3ccc(Cl)cc3)c(=O)cc2Oc2ccccc2)cn1 [Compound 534]
pEC50: > 4.30

CC(=O)Nc1cccc(-n2cc(-c3ccc(F)cc3)c(Oc3ccccc3)cc2=O)c1 [Compound 536]
pEC50: > 4.30

Cn1cc(-c2cn(-c3cccc(NC(N)=O)c3)c(=O)cc2Oc2ccccc2)cn1 [Compound 537]
pEC50: > 4.30

COCCOc1ccc(-n2cc(-c3cnn(C)c3)c(Oc3ccccc3)cc2=O)cc1 [Compound 540]
pEC50: > 4.30

CCOc1ccc(-n2cc(-c3ccc(F)cc3)c(Cl)cc2=O)c(C)c1 [Compound 541]
pEC50: < 3.70

Cn1cc(-c2cn(-c3ccc(O)cc3)c(=O)cc2Oc2ccccc2)cn1 [Compound 545]
pEC50: < 3.70

O=c1cc(NCc2ncccn2)ccn1-c1ccc(OC(F)(F)F)cc1 [Compound 546]
pEC50: < 3.70

CCOc1ccc(-n2cc(-c3ccc4scnc4c3)c(C)cc2=O)c(C)c1 [Compound 552]
pEC50: < 3.70

CCn1c(=O)oc2ccc(-c3cn(-c4ccc(OC(F)(F)F)cc4)c(=O)cc3C)cc21 [Compound 554]
pEC50: < 3.70

Cc1cc(=O)n(-c2ccc(OC(F)(F)F)cc2)cc1-c1cccc2[nH]c(=O)oc12 [Compound 555]
pEC50: < 3.70

CCn1c(=O)oc2c(-c3cn(-c4ccc(OC(F)(F)F)cc4)c(=O)cc3C)cccc21 [Compound 556]
pEC50: < 3.70

Cc1cc(=O)n(-c2ccc(OC(F)(F)F)cc2)cc1-c1ccc2c(c1)oc(=O)n2CCO [Compound 558]
pEC50: 3.70 to 4.30

Cc1cc(=O)n(-c2ccc(F)c(NC(N)=O)c2)cc1-c1ccc(F)cc1 [Compound 559]
pEC50: > 4.30

Cc1cc(=O)n(-c2ccc(OC(F)(F)F)cc2)cc1-c1ccc2c(c1)OCC(=O)N2CCO [Compound 566]
pEC50: < 3.70

Cc1nc2c(=O)n(-c3ccc(OC(F)(F)F)cc3)cc(-c3ccc(F)cc3)c2o1 [Compound 568]
pEC50: < 3.70
